Laboratory results: patent publication US20240216364A1, “STRONG POTENTIATION OF TLR3 AGONISTS EFFECTS USING FXR AGONISTS AS A COMBINED TREATMENT” (ENYO PHARMA, priority 2021, published 2024)

tested on: HBV; assay: HBV replication in HBV-infected fresh primary human hepatocytes (PHH): secreted HBsAg, HBeAg, HBV DNA; type: cell-based, HBV (genotype D); conditions: FXR agonist 1 μM combined with Riboxxol 5 μg/mL, FIG. 5
Procedure: Primary human hepatocytes (PHH) were freshly prepared from human liver resection obtained from the Centre Léon Bérard (Lyon) with French ministerial authorizations (AC 2013-1871, DC 2013-1870, AFNOR NF 96 900 sept 2011) as previously described (Lecluyse, E. L. & Alexandre, E. Methods Mol. Biol. Clifton NJ 640, 57-82 (2010)).
HBV stocks (genotype D, Genbank ID U95551) were prepared using the HepAD38 cell line according to previously described protocols (Ladner, S. K. et al. Antimicrob. Agents Chemother. 41, 1715-1720 (1997)). Supernatants containing HBV particles were clarified (0.45 μm filter) and concentrated with 8% PEG 8000 (Sigma-Aldrich). HBV DNA was quantified using the AmpliPrep/COBAS® TaqMan® HBV Test (Roche).
EYP-001 was provided by Enyo Pharma. A stock at 30 mM was constituted in DMSO, and working concentrations were obtained by dilution into the culture medium extemporaneously. Riboxxol was purchased from Riboxx (Germany). It is a synthetic double-stranded RNA (dsRNA), has a length of 50 bp, and is composed of cytosines, inosines and guanosines. It is a pure agonist of TLR3, with no leakiness toward RIG-1 or MDA5 (Lucifora J et al. Sci Rep. 2018 Mar. 29; 8(1):5390). A stock solution was constituted at 1 mg/mL in RNAse-free water. Poly(I:C) High and Low molecular weight were purchased from InvivoGen (USA). They are both double stranded RNA composed of inosine and cytosine (Low: 0.2 to 1 kb, High: 1.5 to 8 kb) and are TLR3 agonists. A stock solution at 1 mg/mL was constituted in RNAse-free water. Tropifexor, Cilofexor and Nidufexor were purchased from TargetMol (USA), GW4064 from Selleckchem (USA), Fexaramine and OCA from Euromedex (France). Those 6 FXR agonists were used as described below. All the stock solutions were at 10 mM (Cilofexor, Tropifexor, Nidufexor, GW4064) or 50 mM (Fexaramine, OCA) in DMSO.
HBs and HBe antigens secreted in cells supernatant were quantified, after required dilutions, with Autobio kits (AutoBio, China) according to manufacturer's protocol.
To determine the combined impact of FXR agonists and TLR3 agonists on HBV infection, in vitro infections were performed in primary human hepatocytes (PHH). PHH are naturally susceptible to infection with HBV virions produced in vitro, leading to very high levels of replication of the virus. Freshly prepared and seeded PHH were infected with HBV at a multiplicity of infection of 500 vge/cell. From day 4 to 12 post-infection, cells were treated with the FXR agonist EYP001 at 30 μM, or with a TLR3 agonist (Riboxxol) at 5 μg/mL, or with the combination of the FXR agonist EYP001 at 30 μM with a TLR3 agonist (Riboxxol) at 5 μg/mL, or with the vehicle. Supernatants were harvested at day 12 for secreted HBV DNA and secreted antigens (HBsAg and HBeAg) quantification. Results are expressed as the mean+SD of two independent experiments, each performed with at least three biological replicates. […]
A third experiment was conducted the same way, in the same model of HBV infected PHH. In this experiment, 6 different FXR agonists (Tropifexor at 1 μM, Cilofexor at 10 μM, Nidufexor at 10 μM, GW4064 at 10 μM, Fexaramine at 10 μM and OCA at 10 μM) were combined with the TLR3 agonist Riboxxol at 5 μg/mL.

Row | Compound | HBeAg level, effect of the combination versus the TLR3 agonist alone | HBsAg level, effect of the combination versus the TLR3 agonist alone
1 | O=C(O)c1cc(F)c2nc(N3[C@@H]4CC[C@H]3C[C@@H](OCc3c(-c5ccccc5OC(F)(F)F)noc3C3CC3)C4)sc2c1 [Tropifexor, 2-(3-((5-cyclopropyl-3-(2-(trifluoromethoxy)phenyl)isoxazol-4-yl)methoxy)-8-azabicyclo[3.2.1]octan-8-yl)-4-fluorobenzo[d]thiazole-6-carboxylic acid] | improve the antiviral effects | improve the antiviral effects

same assay, conditions: FXR agonist 10 μM combined with Riboxxol 5 μg/mL, FIG. 5

Row | Compound | HBeAg level, effect of the combination versus the TLR3 agonist alone | HBsAg level, effect of the combination versus the TLR3 agonist alone
2 | COC(=O)/C=C/c1cccc(N(Cc2ccc(-c3ccc(N(C)C)cc3)cc2)C(=O)C2CCCCC2)c1 [Fexaramine] | improve the antiviral effects | improve the antiviral effects
3 | CC(C)c1onc(-c2c(Cl)cccc2Cl)c1COc1ccc(/C=C/c2cccc(C(=O)O)c2)c(Cl)c1 [GW4064, 3-[2-[2-Chloro-4-[[3-(2,6-dichlorophenyl)-5-(1-methylethyl)-4-isoxazolyl]methoxy]phenyl]ethenyl]benzoic acid] | improve the antiviral effects | improve the antiviral effects
4 | Cn1nc(C(=O)N(Cc2ccccc2)Cc2ccc(C(=O)O)cc2)c2c1-c1cc(Cl)ccc1OC2 [Nidufexor, 4-[(N-benzyl-8-chloro-1-methyl-1,4-dihydro[1]benzopyrano[4,3-c]pyrazole-3-carboxamido)methyl]benzoic acid] | improve the antiviral effects | improve the antiviral effects
5 | O=C(O)c1ccnc(N2CC(O)(c3ccc(OCc4c(-c5c(Cl)cccc5Cl)noc4C4CC4)cc3Cl)C2)c1 [Cilofexor, 2-[3-[2-Chloro-4-[[5-cyclopropyl-3-(2,6-dichlorophenyl)-4-isoxazolyl]methoxy]phenyl]-3-hydroxy-1-azetidinyl]-4-pyridinecarboxylic acid] | improve the antiviral effects | improve the antiviral effects
6 | CC[C@H]1[C@@H](O)[C@@H]2[C@H](CC[C@]3(C)[C@@H]([C@H](C)CCC(=O)O)CC[C@@H]23)[C@@]2(C)CC[C@@H](O)C[C@@H]12 [OCA, Cholan-24-oic acid, 6-ethyl-3,7-dihydroxy-, (3α,5β,6α,7α)-] | improve the antiviral effects | improve the antiviral effects
